From PubChem BioAssay AID1963438 (Molecular Pharmacology Branch, DTP, NCI, 2024)
Each block holds one molecule with its values, some of them ahead of it.

Test system: NCI-H510 multicellular tumor spheroid growth, % test/control
Assay: Anticancer human tumor NCI-H510 cell line growth inhibition [Asc];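 note: spheroids exposed to agents for 7 days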;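 for viability, T/C: 100% = DMSO vehicle control wells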
Conditions: for IC50: curve of first compound; for viability, T/C: stronger effect = lower value
Procedure, shortened: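 Stromal components (HUVEC and hMSC) are co-assembled with the cancer cells into multicellular spheroids. Drugs are then added singly or paired, at concentrations falling by half-log increments from a clinically achievable maximum, capped at 10 microM without known Cmax.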

[1] = second compound 0.1 µM, first compound 0.0316 µM
[2] = second compound 0.1 µM, first compound 0.1 µM
[3] = second compound 0.1 µM, first compound 0.316 µM
[4] = second compound 0.1 µM, first compound 1 µM
[5] = second compound 0.316 µM, first compound 0.0316 µM
[6] = second compound 0.316 µM, first compound 0.1 µM
[7] = second compound 0.316 µM, first compound 0.316 µM
[8] = second compound 0.316 µM, first compound 1 µM
[9] = second compound 1 µM, first compound 0.0316 µM
[10] = second compound 1 µM, first compound 0.1 µM
[11] = second compound 1 µM, first compound 0.316 µM
[12] = second compound 1 µM, first compound 1 µM

IC50 (second compound 0.1 µM): > 1000 nM
IC50 (second compound 0.316 µM): > 1000 nM
IC50 (second compound 1 µM): > 1000 nM
IC50 (second compound 3.16 µM): > 1000 nM
IC50 (second compound 10 µM): > 1000 nM
SMILES: O=C(c1ccc(F)c(F)c1Nc1ccc(I)cc1F)N1CC(O)([C@@H]2CCCCN2)C1 + Cc1c(S(C)(=O)=O)c(-c2cc(F)cc(N3CCN(c4ccc(NS(=O)(=O)c5ccc(NC(CCN6CCC(C(=O)OCCCP(=O)(O)O)CC6)CSc6ccccc6)c(S(=O)(=O)C(F)(F)F)c5)cc4)CC3)c2)c(-c2ccc(Cl)cc2)n1C(C)C
viability, T/C (second compound 0.1 µM, first compound 0.00316 µM): 113%
viability, T/C (second compound 0.1 µM, first compound 0.01 µM): 107%
viability, T/C [1]: 115%
viability, T/C [2]: 96.9%
viability, T/C [3]: 90%
viability, T/C [4]: 87.4%
viability, T/C (second compound 0.316 µM, first compound 0.00316 µM): 124%
viability, T/C (second compound 0.316 µM, first compound 0.01 µM): 104%
viability, T/C [5]: 113%
viability, T/C [6]: 88.7%
viability, T/C [7]: 58.7%
viability, T/C [8]: 83%
viability, T/C (second compound 1 µM, first compound 0.00316 µM): 99.7%
viability, T/C (second compound 1 µM, first compound 0.01 µM): 115%
viability, T/C [9]: 126%
viability, T/C [10]: 89.8%
viability, T/C [11]: 86.9%
viability, T/C [12]: 91.7%
viability, T/C (second compound 3.16 µM, first compound 0.00316 µM): 107%
viability, T/C (second compound 3.16 µM, first compound 0.01 µM): 88.1%
viability, T/C (second compound 3.16 µM, first compound 0.0316 µM): 108%
viability, T/C (second compound 3.16 µM, first compound 0.1 µM): 104%
viability, T/C (second compound 3.16 µM, first compound 0.316 µM): 81.3%
viability, T/C (second compound 3.16 µM, first compound 1 µM): 81.4%
viability, T/C (second compound 10 µM, first compound 0.00316 µM): 74.7%
viability, T/C (second compound 10 µM, first compound 0.01 µM): 105%
viability, T/C (second compound 10 µM, first compound 0.0316 µM): 96.1%
viability, T/C (second compound 10 µM, first compound 0.1 µM): 105%
viability, T/C (second compound 10 µM, first compound 0.316 µM): 78.3%
viability, T/C (second compound 10 µM, first compound 1 µM): 64.3%

IC50 (second compound 0.01 µM): > 10000 nM
IC50 (second compound 0.0316 µM): > 10000 nM
IC50 (second compound 0.1 µM): > 10000 nM
IC50 (second compound 0.316 µM): > 10000 nM
IC50 (second compound 1 µM): > 10000 nM
SMILES: C=CC(=O)N1CCN(c2nc(=O)n(-c3c(C)ccnc3C(C)C)c3nc(-c4c(O)cccc4F)c(F)cc23)C(C)C1 (stereo not given) + CNC(C)C(=O)NC1CN(S(=O)(=O)c2cccc(S(=O)(=O)N3CCC4CCC(C(=O)NC(c5ccccc5)c5ccccc5)N4C(=O)C(NC(=O)C(C)NC)C3)c2)CCC2CCC(C(=O)NC(c3ccccc3)c3ccccc3)N2C1=O
viability, T/C (second compound 0.01 µM, first compound 0.0316 µM): 115%
viability, T/C (second compound 0.01 µM, first compound 0.1 µM): 101%
viability, T/C (second compound 0.01 µM, first compound 0.316 µM): 102%
viability, T/C (second compound 0.01 µM, first compound 1 µM): 115%
viability, T/C (second compound 0.01 µM, first compound 3.16 µM): 113%
viability, T/C (second compound 0.01 µM, first compound 10 µM): 115%
viability, T/C (second compound 0.0316 µM, first compound 0.0316 µM): 105%
viability, T/C (second compound 0.0316 µM, first compound 0.1 µM): 108%
viability, T/C (second compound 0.0316 µM, first compound 0.316 µM): 95.6%
viability, T/C (second compound 0.0316 µM, first compound 1 µM): 119%
viability, T/C (second compound 0.0316 µM, first compound 3.16 µM): 104%
viability, T/C (second compound 0.0316 µM, first compound 10 µM): 110%
viability, T/C [1]: 112%
viability, T/C [2]: 95.8%
viability, T/C [3]: 102%
viability, T/C [4]: 91.9%
viability, T/C (second compound 0.1 µM, first compound 3.16 µM): 105%
viability, T/C (second compound 0.1 µM, first compound 10 µM): 106%
viability, T/C [5]: 110%
viability, T/C [6]: 113%
viability, T/C [7]: 102%
viability, T/C [8]: 95.8%
viability, T/C (second compound 0.316 µM, first compound 3.16 µM): 104%
viability, T/C (second compound 0.316 µM, first compound 10 µM): 93.3%
viability, T/C [9]: 96.5%
viability, T/C [10]: 105%
viability, T/C [11]: 107%
viability, T/C [12]: 101%
viability, T/C (second compound 1 µM, first compound 3.16 µM): 98.2%
viability, T/C (second compound 1 µM, first compound 10 µM): 110%

IC50 (second compound 0.1 µM): 199 nM
IC50 (second compound 0.316 µM): 126 nM
IC50 (second compound 1 µM): 73.4 nM
IC50 (second compound 3.16 µM): 169 nM
IC50 (second compound 10 µM): 53.4 nM
SMILES: NC(=O)C(=Cn1cnc(-c2cc(C(F)(F)F)cc(C(F)(F)F)c2)n1)c1cncnc1 + Cc1c(S(C)(=O)=O)c(-c2cc(F)cc(N3CCN(c4ccc(NS(=O)(=O)c5ccc(NC(CCN6CCC(C(=O)OCCCP(=O)(O)O)CC6)CSc6ccccc6)c(S(=O)(=O)C(F)(F)F)c5)cc4)CC3)c2)c(-c2ccc(Cl)cc2)n1C(C)C
viability, T/C (second compound 0.1 µM, first compound 0.000949 µM): 87%
viability, T/C (second compound 0.1 µM, first compound 0.003 µM): 76.6%
viability, T/C (second compound 0.1 µM, first compound 0.00949 µM): 109%
viability, T/C (second compound 0.1 µM, first compound 0.03 µM): 74.3%
viability, T/C (second compound 0.1 µM, first compound 0.0949 µM): 86.7%
viability, T/C (second compound 0.1 µM, first compound 0.3 µM): 29.6%
viability, T/C (second compound 0.316 µM, first compound 0.000949 µM): 102%
viability, T/C (second compound 0.316 µM, first compound 0.003 µM): 73.5%
viability, T/C (second compound 0.316 µM, first compound 0.00949 µM): 103%
viability, T/C (second compound 0.316 µM, first compound 0.03 µM): 78.2%
viability, T/C (second compound 0.316 µM, first compound 0.0949 µM): 66.8%
viability, T/C (second compound 0.316 µM, first compound 0.3 µM): 4.66%
viability, T/C (second compound 1 µM, first compound 0.000949 µM): 88.5%
viability, T/C (second compound 1 µM, first compound 0.003 µM): 76.9%
viability, T/C (second compound 1 µM, first compound 0.00949 µM): 88.9%
viability, T/C (second compound 1 µM, first compound 0.03 µM): 74%
viability, T/C (second compound 1 µM, first compound 0.0949 µM): 43%
viability, T/C (second compound 1 µM, first compound 0.3 µM): 6.15%
viability, T/C (second compound 3.16 µM, first compound 0.000949 µM): 79.2%
viability, T/C (second compound 3.16 µM, first compound 0.003 µM): 88.6%
viability, T/C (second compound 3.16 µM, first compound 0.00949 µM): 94.8%
viability, T/C (second compound 3.16 µM, first compound 0.03 µM): 59.2%
viability, T/C (second compound 3.16 µM, first compound 0.0949 µM): 89%
viability, T/C (second compound 3.16 µM, first compound 0.3 µM): 18.3%
viability, T/C (second compound 10 µM, first compound 0.000949 µM): 76.1%
viability, T/C (second compound 10 µM, first compound 0.003 µM): 84.5%
viability, T/C (second compound 10 µM, first compound 0.00949 µM): 59.3%
viability, T/C (second compound 10 µM, first compound 0.03 µM): 70%
viability, T/C (second compound 10 µM, first compound 0.0949 µM): 35%
viability, T/C (second compound 10 µM, first compound 0.3 µM): 1.98%
